Several values for one entry are separate records, joined by “and”; a condition that tells them apart may be missing. Equal values may be shown once. Read-outs that look alike come from different tables or passages of the source.
Columns and labels:
Type in all cases: in vivo
[1] = system: lettuce (Green Wave); test: Example 22: pH stress Petri dish test (lettuce); conditions: for Root length, Increase rate: non-addition group = 100.0
[2] = system: Phythophthora infestans; conditions: 14 days
[3] = system: lettuce (Green Wave); test: Example 16: Growth-promoting effect (lettuce, drenching treatment); conditions: for Increase/decrease of above-ground part / Increase/decrease of underground part: non-addition group = 100%; for Weight of above-ground part FW / Weight of underground part FW: 25° C., 14 days
Protocol: Lettuce (Green Wave) was sown on a cell tray filled with seedling culture soil (manufactured by Nihon Hiryo Co., Ltd.; “Naebijin N100”). After the two leaf stage, the lettuce was transplanted to each pot (soil volume, 100 ml). […]

[4] = system: Sphaerotheca cucurbitae; test: Example 20: Control effect against cucumber powdery mildew; conditions: 14 days
Protocol: […] cucumber (Hanjirofushinari, Takii & Co., Ltd.) in the two leaf stage, and foliar spraying of 15 ml each of dilutions of hesperidin prepared at final concentrations of 10 to 1000 ppm (using 0.01% Tween 20 solution as the solvent) was carried out. After air-drying, foliar spraying of cucumber powdery mildew spores (1×10^4 spores/ml, using 0.01% Tween 20 solution as the solvent) was carried out. After air-drying, cultivation was carried out in a greenhouse for 14 days, and then the control effect was evaluated.
Preventive value=100−(damage in the addition group/damage in the non-addition group)×100 (Equation 3)

[5] = system: Cabbage (Okina); test: Example 18: Growth-promoting effect (cabbage, seed dressing); conditions: for Increase/decrease of above-ground part / Increase/decrease of underground part: non-addition group = 100%; for Weight of above-ground part FW / Weight of underground part FW: 25° C., 28 days
Protocol: For cabbage (Okina, Takii & Co., Ltd.), seed dressing was carried out by application, at 5% seed weight, of a dilution of hesperidin prepared at a final concentration of 1 to 100 ppm (using water as the solvent). The dressed cabbage seeds were sown on a cell tray filled with seedling culture soil (manufactured by Nihon Hiryo Co., Ltd.; “Naebijin N100”). […]

[6] = system: Rice (Koshihikari) seeds; test: Example 5: High-temperature stress Petri dish test (rice seeds); conditions: for Germination rate, Increase rate: non-addition group = 100.0; for Germination rate, Average: seeds 65° C. hot water 10 minutes, 28° C. 5 days
Protocol: Rice (Koshihikari) seeds were soaked in hot water at 65° C. for 10 minutes to perform high-temperature treatment. […] A group similarly soaked in distilled water was provided as a non-addition group. After the soaking treatment, the seeds were dried in air, and then 20 seeds were sown on each of shallow Petri dishes in which qualitative filter paper was placed. To the filter paper in each Petri dish, 5 mL of distilled water was uniformly added dropwise. […] For each group, three measurement results were obtained (N=3).

[7] = system: Carrot (US Harumakigosun carrot) seeds; test: Example 7: High-temperature stress Petri dish test (carrot seeds); conditions: for Germination rate, Increase rate: non-addition group = 100.0; for Germination rate, Average: seeds 55° C. hot water 20 minutes, 23° C. 7 days
Protocol: Carrot (US Harumakigosun carrot, The Yokohama Nursery Co., Ltd.) seeds were soaked in hot water at 55° C. for 20 minutes to perform high-temperature treatment. […] A group similarly soaked in distilled water was provided as a non-addition group. After the soaking treatment, the seeds were dried in air, and then 20 seeds were sown on each of shallow Petri dishes in which qualitative filter paper was placed. To the filter paper in each Petri dish, 3 mL of distilled water was uniformly added dropwise. […] For each group, three measurement results were obtained (N=3).

[8] = system: lettuce (Green Wave); test: Example 23: Metal stress Petri dish test (lettuce); conditions: Metal stress (AlCl3 100 μM), 1 ppm
[9] = system: Bent grass (Penncross); test: Example 8: High-temperature stress pot test (bent grass); conditions: for Weight of above-ground part, Increase rate: non-addition group = 100.0; for Weight of above-ground part, Average: greenhouse average daytime 50° C., 7 days, fresh weight
Protocol: Bent grass (Penncross, Snow Brand Seed Co., Ltd.) was uniformly sown on pots filled with seedling culture soil (manufactured by Katakura & Co-op Agri Corporation; Kumiai seedling culture soil for gardening Genkikun No. 1) (soil volume, 100 ml), and cultivated for 14 to 20 days, followed by evenly cutting the above-ground part to a length of about 1 cm on the day before application of hesperidin. […] A non-addition group was similarly subjected to drenching treatment using distilled water. High-temperature treatment was carried out by cultivation in a glass greenhouse (average daytime temperature, […]) for 7 days, and then the fresh weight of the above-ground part was evaluated. For each group, three measurement results were obtained (N=3).

[10] = system: lettuce (Green Wave); test: Example 4: High-temperature stress Petri dish test (lettuce), comparison with flavonoids; conditions: 0.1 ppm

## COc1ccc([C@@H]2CC(=O)c3c(O)cc(O[C@@H]4O[C@H](CO[C@@H]5O[C@@H](C)[C@H](O)[C@@H](O)[C@H]5O)[C@@H](O)[C@H](O)[C@H]4O)cc3O2)cc1O [Hesperidin]
[1]; Acid stress (pH 4), 0.1 ppm
  Root length, Average: 17.69 mm
  Root length, Increase rate: 121.9%
[1]; Acid stress (pH 4), 1 ppm
  Root length, Average: 18.03 mm
  Root length, Increase rate: 124.3%
[1]; Alkali stress (pH 9), 0.1 ppm
  Root length, Average: 17.55 mm
  Root length, Increase rate: 114.1%
[1]; Alkali stress (pH 9), 1 ppm
  Root length, Average: 17.40 mm
  Root length, Increase rate: 113.1%
[2]; 10 ppm foliar spraying on tomato (Regina)
  Preventive value: 37.4
[2]; 30 ppm foliar spraying on tomato (Regina)
  Preventive value: 86.0
[2]; 100 ppm foliar spraying on tomato (Regina)
  Preventive value: 92 and 92.1
[3]; 1 ppm
  Increase/decrease of above-ground part: 103%
  Increase/decrease of underground part: 115%
[3]; 3 ppm
  Increase/decrease of above-ground part: 126%
  Increase/decrease of underground part: 119%
[3]; 100 ppm
  Increase/decrease of above-ground part: 118%
  Increase/decrease of underground part: 123%
[3]; drenching treatment 1 ppm
  Weight of above-ground part FW: 13.26 mg/individual
  Weight of underground part FW: 7.99 mg/individual
[3]; drenching treatment 3 ppm
  Weight of above-ground part FW: 16.17 mg/individual
  Weight of underground part FW: 8.29 mg/individual
[3]; drenching treatment 100 ppm
  Weight of above-ground part FW: 15.12 mg/individual
  Weight of underground part FW: 8.57 mg/individual
[4]; 10 ppm foliar spraying on cucumber
  Preventive value: 5.0
[4]; 100 ppm foliar spraying on cucumber
  Preventive value: 50.0
[4]; 1,000 ppm foliar spraying on cucumber
  Preventive value: 68
[5]; 1 ppm
  Increase/decrease of above-ground part: 106%
  Increase/decrease of underground part: 108%
[5]; 10 ppm
  Increase/decrease of above-ground part: 112%
  Increase/decrease of underground part: 106%
[5]; 100 ppm
  Increase/decrease of above-ground part: 106%
  Increase/decrease of underground part: 101%
[5]; seed dressing 1 ppm
  Weight of above-ground part FW: 54.0 mg/individual
  Weight of underground part FW: 15.6 mg/individual
[5]; seed dressing 10 ppm
  Weight of above-ground part FW: 57.2 mg/individual
  Weight of underground part FW: 15.3 mg/individual
[5]; seed dressing 100 ppm
  Weight of above-ground part FW: 53.9 mg/individual
  Weight of underground part FW: 14.6 mg/individual
[5]; seed dressing, growth promotion
  optimum concentration of hesperidin to be added for cabbage: lower than 100 ppm
[6]; 1 ppm
  Germination rate, Increase rate: 131.5%
[6]; 10 ppm
  Germination rate, Increase rate: 146.6%
[6]; 100 ppm
  Germination rate, Increase rate: 134.0%
[6]; then soaked 1 hour at 1 ppm
  Germination rate, Average: 77.3%
[6]; then soaked 1 hour at 10 ppm
  Germination rate, Average: 86.2%
[6]; then soaked 1 hour at 100 ppm
  Germination rate, Average: 78.8%
[7]; 100 ppm
  Germination rate, Increase rate: 215.8%
[7]; 1000 ppm
  Germination rate, Increase rate: 173.7%
[7]; then soaked at 100 ppm
  Germination rate, Average: 68.3%
[7]; then soaked at 1000 ppm
  Germination rate, Average: 55.0%
[8]
  Root length, Average: 22.87 mm
[8]; non-addition group = 100.0
  Root length, Increase rate: 137.6%
[9]; 0.06 ppm
  Weight of above-ground part, Increase rate: 151.7%
[9]; 0.6 ppm
  Weight of above-ground part, Increase rate: 162.2%
[9]; drenching 0.06 ppm
  Weight of above-ground part, Average: 3.3 g
[9]; drenching 0.6 ppm
  Weight of above-ground part, Average: 3.6 g
[9]; groups subjected to drenching treatment (0.06 to 0.6 ppm), after high-temperature treatment
  Death of the above-ground part (FIG. 1): no death was found
[10]; High-temperature treatment (42° C., 1.5 hours)
  Root length: 16.5 mm
[10]; Normal cultivation
  Root length: 23.1 mm
